In patent US7569354B2, “Cellomics system” (OnChip Cellomics Consortium, priority 2004, dated 2009):

Assays:
[1] = test system: blood from a patient suffering from leukemia; assay: separation of cells causing leukemia by intake of labeled amino acids; format: cell-based, human
Procedure: Descriptions are provided below for a case in which cells causing leukemia are separated by applying the technique in Example 3 for cell separation. NDB folic acid (Ex465/Em540), 4,4-difluoro-1,3,5,7-tetramethyl-4-bora-3a,4a-diaza-s-indacene-8-propionate labeled ASn, and 4,4-difluoro-5-(2-pyrrole)-4-bora-3a,4a-diaza-s-indacene-3-propionate labeled Thr are added to blood from a patient suffering from leukemia, and the mixture is incubated for 30 minutes at 37° C. Using the NDB folic acid (Ex465/Em540) as a control, the amounts of intaked 4,4-difluoro-3,5,7-tetramethyl-4-bora-3a,4a-diaza-s-indacene-8-propionate labeled ASn (Ex493/Em503) and intaked 4,4-difluoro-5-(2-pyrrole)-4-bora-3a,4a-diaza-s-indacene-3-propionate labeled Thr are measured by detecting the fluorescent intensities of various derivatives of 4,4-difluoro-4-bora-3a,4a-diaza-s-indacene against the fluorescence intensity generated by NDB-labeled folic acid, and cells having high fluorescence intensity with the fluorescence wavelength of around 503 nm, namely cells having a large intake amount of the 4,4-difluoro-1,3,5,7-tetramethyl-4-bora-3a,4a-diaza-s-indacene-8-propionate labeled ASn are sorted with a cell sorter.

[2] = test system: cells from a lever tissue; assay: cell separation by cell permeability of NBD-labeled sugars, lever tissue cells; format: cell-based
[3] = test system: cells from brain tissue pieces; assay: cell separation by cell permeability of NBD-labeled sugars, brain-derived cells; format: cell-based; details: 15 minutes at 37° C., 200 cells processed
From the text: In Example 2 for cell separation, a case is described in which differences of cells are recognized by measuring differences in cell permeability of a plurality of substrates and then discrete cells are separated. In this example, cells are identified and separated by observing the cell permeability of galactose or fructose against the glucose described in the aforementioned document. Generally, glucose is often used as an energy source for cells, but galactose or fructose is not directly consumed. For instance, when Escherichia coli is cultured in a mixed culture medium of glucose and fructose, glucose is consumed at first, and then […] is consumed when glucose decreases. Therefore, for instance, by measuring cell permeability of various types of substrates using a quantity of intaked glucose as control data, cell separation reflecting the state of cell more accurately can be performed.
In this example, a glucose labeling derivative of 6-(N-(7-nitrobenz-2-oxa-1.3-diazol-4-yl)amino) sugar (Ex465/Em540) (NBD-labeled sugar) is used. […] The culture fluid is exchanged with that not containing the NBD-labeled sugar, and the sample is immediately added to a cell sorter independently developed by the inventors, and cells with the relative fluorescence intensity of 500 or more are separated.

[4] = test system: neurocyte / pulsating myocardial cell; details: added to culture fluid of the neurocyte side only
Procedure: In Example 3, examination is made for whether a beat cycle of the pulsating myocardial cell 2-1 kept in the cell holding zone 2 changes when potassium or glucose, or suspected endocrine disrupter is added to the culture fluid of the neurocyte 3-2 in the cell holding zone 3, or the content is increased.
At first, the same culture fluid is filled in the culture fluid baths 21-1, 21-2, and a beat cycle of the pulsating myocardial cell 2-1 is checked to obtain a myocardial pulsation pattern showing the substantially same cycle as shown in FIG. 49(A).

4,4-difluoro-1,3,5,7-tetramethyl-4-bora-3a,4a-diaza-s-indacene-8-propionate labeled ASn
cancerous leukocytes among the sorted cells with large intake, histological examination ([1]; 30 minutes at 37° C., fluorescence around 503 nm, NDB folic acid as control): ≥ 95%

4,4-difluoro-5-(2-pyrrole)-4-bora-3a,4a-diaza-s-indacene-3-propionate labeled Thr
intake rate in normal cells against cancer cells ([1]; compared to labeled Asn): not so remarkable

O=[N+]([O-])c1ccc(NCC2OC(O)C(O)C(O)[C@@H]2O)c2nonc12 (some centres unmarked) [NBD-labeled glucose]
cells obtained with the relative fluorescence intensity of 500 or more [2]: 46 cells | cells obtained with the relative fluorescence intensity of 500 or more [3]: 66 cells

NCCc1ccc(O)c(O)c1 [dopamine, 2-dihydroxyphenylethylamine]
beat cycle of the pulsating myocardial cell [4]: disturbance in the beat cycle
